In patent US20240209028A1, “CNP COMPOUNDS” (priority 2022, published 2024):
Starred links: 1 amine or outer side, 2 acyl side, 3 side chain; linkers in the order of their positions; H or OH if unused. Positions of bridges follow the written chain, without caps; N, C: chain ends. Residues, ends and D or L forms follow the SMILES beside them. *: point of attachment. C18 diacid = O=C(O)CCCCCCCCCCCCCCCCC(=O)*; γGlu = O=C(O)[C@H](CCC(=O)[*:2])N[*:1]; AEEA = NCCOCCOCC(=O)O

Target: T1, human natriuretic peptide receptor 2 (hNPR2) (Homo sapiens, UniProt P20594)
T1 construct: expressed in transfected cells; host or cells: HEK293 (ATCC CRL-1573), clone 35, co-transfected with pGloSensor-42F
T1 sequence (P20594 23-1047): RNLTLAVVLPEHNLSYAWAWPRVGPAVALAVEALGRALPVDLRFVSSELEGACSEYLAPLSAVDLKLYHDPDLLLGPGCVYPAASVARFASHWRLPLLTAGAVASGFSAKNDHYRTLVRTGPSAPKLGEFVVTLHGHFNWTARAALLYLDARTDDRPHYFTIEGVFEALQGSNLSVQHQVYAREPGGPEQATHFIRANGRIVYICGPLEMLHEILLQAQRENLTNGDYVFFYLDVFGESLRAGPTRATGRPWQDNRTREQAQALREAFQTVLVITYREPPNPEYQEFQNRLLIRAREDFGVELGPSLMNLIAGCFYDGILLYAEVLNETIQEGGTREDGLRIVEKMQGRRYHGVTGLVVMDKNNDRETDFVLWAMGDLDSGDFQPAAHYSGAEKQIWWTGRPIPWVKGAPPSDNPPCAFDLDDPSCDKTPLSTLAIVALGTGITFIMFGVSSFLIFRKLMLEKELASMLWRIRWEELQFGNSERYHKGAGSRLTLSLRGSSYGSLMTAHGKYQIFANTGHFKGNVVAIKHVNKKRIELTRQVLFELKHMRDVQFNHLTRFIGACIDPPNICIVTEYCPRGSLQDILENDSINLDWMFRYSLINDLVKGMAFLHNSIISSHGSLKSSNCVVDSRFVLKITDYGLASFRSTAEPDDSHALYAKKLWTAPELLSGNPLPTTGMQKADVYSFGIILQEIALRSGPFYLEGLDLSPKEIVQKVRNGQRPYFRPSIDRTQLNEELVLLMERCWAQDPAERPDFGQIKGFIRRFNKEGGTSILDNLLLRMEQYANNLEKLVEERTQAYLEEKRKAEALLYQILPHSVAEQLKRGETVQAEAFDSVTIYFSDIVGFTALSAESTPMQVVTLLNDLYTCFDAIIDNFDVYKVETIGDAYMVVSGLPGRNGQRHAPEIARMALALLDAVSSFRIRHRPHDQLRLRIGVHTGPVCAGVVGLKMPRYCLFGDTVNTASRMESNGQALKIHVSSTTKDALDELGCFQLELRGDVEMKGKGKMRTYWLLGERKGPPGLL
Assay: In vitro hNPR2 activity assay (cGMP GloSensor reporter, HEK293)
Type: cell-based
Details: for hNPR2 0% HSA. [EC50% rel CNP]: potency relative to CNP22 (0065); for EC50: 0% HSA, HEK293-hNPR2/GloSensor cells
In short: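 Potency is the EC50 from a four-parameter logistic fit, also expressed relative to the in-plate CNP22 control (×100), with at least two replicates. Compounds (ten concentrations, […], HSA-free diluent with 1% OVA, 0.01% Tween20) were incubated 30 min at 37 °C on HEK293 cells co-expressing hNPR2 and a GloSensor cGMP luciferase. Luminescence detected with Bright-Glo.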

| Compound | hNPR2 0% HSA. [EC50% rel CNP] [%] | EC50 [nM] |
| --- | --- | --- |
| CC[C@H](C)[C@@H]1NC(=O)[C@H](CCCNC(=N)N)NC(=O)[C@H](CC(=O)O)NC(=O)[C@H](CC(C)C)NC(=O)[C@@H]2CCCN2C(=O)[C@H](CC(C)C)NC(=O)CNC(=O)[C@H](Cc2ccccc2)NC(=O)[C@@H](NC(=O)CNC(=O)[C@H](CCC(N)=O)NC(=O)[C@H](CO)NC(=O)[C@H](CC(C)C)NC(=O)CNC(=O)[C@H](CCCCN)NC(=O)[C@H](CCCCN)NC(=O)[C@H](CCC(N)=O)NC(=O)[C@H](C)NC(=O)CNC(=O)[C@H](Cc2c[nH]cn2)NC(=O)[C@H](Cc2ccc(O)cc2)NC(=O)COCCOCCNC(=O)COCCOCCNC(=O)COCCOCCNC(=O)COCCOCCNC(=O)CC[C@H](NC(=O)CC[C@H](NC(=O)CCCCCCCCCCCCCCCCC(=O)O)C(=O)O)C(=O)O)CSSC[C@@H](C(=O)O)NC(=O)CNC(=O)[C@H](CC(C)C)NC(=O)CNC(=O)[C@H](CO)NC(=O)[C@H](CC(C)C)NC(=O)[C@H](CO)NC(=O)CNC1=O [compound 1461] ({C18 diacid-γGlu-γGlu-AEEA-AEEA-AEEA-AEEA}-YHGAQKKGLSQGCFGLPLDRIGSLSGLGC-OH; disulfide 13-29) | 28.9 |  |
| CC[C@H](C)[C@@H]1NC(=O)[C@H](CCCNC(=N)N)NC(=O)[C@H](CC(=O)O)NC(=O)[C@H](CC(C)C)NC(=O)[C@H](CCCCN)NC(=O)[C@H](CC(C)C)NC(=O)CNC(=O)[C@H](Cc2ccccc2)NC(=O)[C@@H](NC(=O)CNC(=O)[C@H](CCCCN)NC(=O)[C@H](CO)NC(=O)[C@H](CC(C)C)NC(=O)CNC(=O)COCCOCCNC(=O)COCCOCCNC(=O)COCCOCCNC(=O)COCCOCCNC(=O)COCCOCCNC(=O)COCCOCCNC(=O)COCCOCCNC(=O)COCCOCCNC(=O)CC[C@H](NC(=O)CCCCCCCCCCCCCCCCC(=O)O)C(=O)O)CSSC[C@@H](C(=O)O)NC(=O)CNC(=O)[C@H](CC(C)C)NC(=O)CNC(=O)[C@H](CO)NC(=O)[C@H](CCSC)NC(=O)[C@H](CO)NC(=O)CNC1=O [compound 0231] | 0.8 | 14.5 |
| CC[C@H](C)[C@@H]1NC(=O)[C@H](CCCNC(=N)N)NC(=O)[C@H](CC(=O)O)NC(=O)[C@H](CC(C)C)NC(=O)[C@@H]2CCCN2C(=O)[C@H](CC(C)C)NC(=O)CNC(=O)[C@H](Cc2ccccc2)NC(=O)[C@@H](NC(=O)CNC(=O)[C@H](CO)NC(=O)[C@H](Cc2c[nH]cn2)NC(=O)[C@H](CC(C)C)NC(=O)CNC(=O)[C@H](CCCCN)NC(=O)[C@H](CCCCN)NC(=O)[C@H](CCC(N)=O)NC(=O)[C@H](C)NC(=O)CNC(=O)COCCOCCNC(=O)COCCOCCNC(=O)CC[C@H](NC(=O)CCCCCCCCCCCCCCCCC(=O)O)C(=O)O)CSSC[C@@H](C(=O)O)NC(=O)CNC(=O)[C@H](CC(C)C)NC(=O)CNC(=O)[C@H](CO)NC(=O)[C@H](CC(C)C)NC(=O)[C@H](CO)NC(=O)CNC1=O [compound 1348] ({C18 diacid-γGlu-AEEA-AEEA}-GAQKKGLHSGCFGLPLDRIGSLSGLGC-OH; disulfide 11-27) | 31.4 |  |
| CC[C@H](C)[C@@H]1NC(=O)[C@H](CCCNC(=N)N)NC(=O)[C@H](CC(=O)O)NC(=O)[C@H](CC(C)C)NC(=O)[C@@H]2CCCN2C(=O)[C@H](CC(C)C)NC(=O)CNC(=O)[C@H](Cc2ccccc2)NC(=O)[C@@H](NC(=O)CNC(=O)[C@H](CO)NC(=O)[C@H](CO)NC(=O)[C@@H](NC(=O)CNC(=O)[C@H](CCCCN)NC(=O)[C@H](CCCCN)NC(=O)[C@H](CCC(N)=O)NC(=O)[C@H](C)NC(=O)CNC(=O)[C@H](Cc2c[nH]cn2)NC(=O)[C@H](CCC(=O)O)NC(=O)COCCOCCNC(=O)COCCOCCNC(=O)CC[C@H](NC(=O)CCCCCCCCCCCCCCCCC(=O)O)C(=O)O)C(C)C)CSSC[C@@H](C(=O)O)NC(=O)CNC(=O)[C@H](CC(C)C)NC(=O)CNC(=O)[C@H](CO)NC(=O)[C@H](CC(C)C)NC(=O)[C@H](CO)NC(=O)CNC1=O [compound 1311] ({C18 diacid-γGlu-AEEA-AEEA}-EHGAQKKGVSSGCFGLPLDRIGSLSGLGC-OH; disulfide 13-29; C-terminus assumed) | 12.7 |  |
| CC[C@H](C)[C@@H]1NC(=O)[C@H](CCCNC(=N)N)NC(=O)[C@H](CC(=O)O)NC(=O)[C@H](CC(C)C)NC(=O)[C@@H]2CCCN2C(=O)[C@H](CC(C)C)NC(=O)CNC(=O)[C@H](Cc2ccccc2)NC(=O)[C@@H](NC(=O)CNC(=O)[C@H](CCC(N)=O)NC(=O)[C@H](CO)NC(=O)[C@H](CC(C)C)NC(=O)CNC(=O)[C@H](CCCCN)NC(=O)[C@H](CCCCN)NC(=O)[C@H](CCC(N)=O)NC(=O)[C@H](C)NC(=O)CNC(=O)[C@H](CCC(=O)O)NC(=O)[C@H](Cc2ccc(O)cc2)NC(=O)[C@H](CCCCN)NC(=O)[C@H](CCCNC(=N)N)NC(=O)[C@H](C)NC(=O)[C@H](CCC(N)=O)NC(=O)[C@@H]2CCCN2C(=O)[C@H](Cc2c[nH]cn2)NC(=O)[C@H](CCC(=O)O)NC(=O)[C@H](CCC(N)=O)NC(=O)COCCOCCNC(=O)COCCOCCNC(=O)CC[C@H](NC(=O)CCCCCCCCCCCCCCCCC(=O)O)C(=O)O)CSSC[C@@H](C(=O)O)NC(=O)CNC(=O)[C@H](CC(C)C)NC(=O)CNC(=O)[C@H](CO)NC(=O)[C@H](CC(C)C)NC(=O)[C@H](CO)NC(=O)CNC1=O [compound 1394] ({C18 diacid-γGlu-AEEA-AEEA}-QEHPQARKYEGAQKKGLSQGCFGLPLDRIGSLSGLGC-OH; disulfide 21-37) | 93.9 |  |
| CC[C@H](C)[C@@H]1NC(=O)[C@H](CCCNC(=N)N)NC(=O)[C@H](CCC(=O)O)NC(=O)[C@H](CC(C)C)NC(=O)[C@@H]2CCCN2C(=O)[C@H](CC(C)C)NC(=O)CNC(=O)[C@H](Cc2ccccc2)NC(=O)[C@@H](NC(=O)CNC(=O)[C@H](CO)NC(=O)[C@H](CO)NC(=O)[C@H](CC(C)C)NC(=O)CNC(=O)[C@H](CCCCN)NC(=O)[C@H](CCCCN)NC(=O)[C@H](CCC(N)=O)NC(=O)[C@H](C)NC(=O)CNC(=O)[C@H](CCC(=O)O)NC(=O)[C@H](Cc2ccc(O)cc2)NC(=O)COCCOCCNC(=O)COCCOCCNC(=O)CC[C@H](NC(=O)CCCCCCCCCCCCCCCCC(=O)O)C(=O)O)CSSC[C@@H](C(=O)O)NC(=O)CNC(=O)[C@H](CC(C)C)NC(=O)CNC(=O)[C@H](CO)NC(=O)[C@H](CC(C)C)NC(=O)[C@H](CO)NC(=O)CNC1=O [compound 1338] ({C18 diacid-γGlu-AEEA-AEEA}-YEGAQKKGLSSGCFGLPLERIGSLSGLGC-OH; disulfide 13-29) | 1.3 | 6.77 |
| CC[C@H](C)[C@@H]1NC(=O)[C@H](CCCNC(=N)N)NC(=O)[C@H](CC(=O)O)NC(=O)[C@H](CC(C)C)NC(=O)[C@H](CCCCN)NC(=O)[C@H](CC(C)C)NC(=O)CNC(=O)[C@H](Cc2ccccc2)NC(=O)[C@@H](NC(=O)CNC(=O)[C@H](CO)NC(=O)[C@H](CO)NC(=O)[C@H](CC(C)C)NC(=O)CNC(=O)[C@H](CCCCN)NC(=O)[C@H](CCC(=O)O)NC(=O)[C@H](CCC(N)=O)NC(=O)[C@H](C)NC(=O)CNC(=O)[C@H](CCCCN)NC(=O)[C@H](CCC(=O)O)NC(=O)COCCOCCNC(=O)COCCOCCNC(=O)CC[C@H](NC(=O)CCCCCCCCCCCCCCCCC(=O)O)C(=O)O)CSSC[C@@H](C(=O)O)NC(=O)CNC(=O)[C@H](CC(C)C)NC(=O)CNC(=O)[C@H](CO)NC(=O)[C@H](CC(C)C)NC(=O)[C@H](CO)NC(=O)CNC1=O [compound 1230] ({C18 diacid-γGlu-AEEA-AEEA}-EKGAQEKGLSSGCFGLKLDRIGSLSGLGC-OH; disulfide 13-29) | 4.2 | 6.98 |
